According to ChEMBL document CHEMBL3217614, “HIV-1 protease inhibitors with a tertiary alcohol containing transition-state mimic and various P2 and P1 substituents” (Medchemcomm, 2011):

Assays:
[1] = tested on: Human immunodeficiency virus; assay: Antiviral activity against HIV infected in human MT4 cells by XTT assay; type: functional, organism-based; conditions: Human immunodeficiency virus 1, MT4
Protease = Protease (Human immunodeficiency virus 1, UniProt Q9YQ12); assay: Inhibition of HIV1 protease expressed in Escherichia coli using DABCYL-gamma-Abu-Ser-Gln-ASN-Tyr-Pro-Ile-Val-Gln-EDANS as substrate after 20 mins by fluorescence assay
Sequence of Protease (Q9YQ12 whole entry): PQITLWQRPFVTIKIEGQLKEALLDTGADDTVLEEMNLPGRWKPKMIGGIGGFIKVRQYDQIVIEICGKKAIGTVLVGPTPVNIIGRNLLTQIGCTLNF

[2] = Cytotoxicity against human MT4 cells after 5 days by XTT assay; type: cell-based
[3] = Intrinsic clearance in human liver microsomes after 30 mins by LC-MS/MS analysis; type: ADME; conditions: read-out: CLH
[4] = Apparent permeability from apical to basolateral side in human Caco2 cells at 10 uM after 60 mins; type: ADME, cell-based; conditions: Caco-2
[5] = Apparent permeability from apical to basolateral side in human Caco2 cells at 10 uM after 30 to 120 mins; type: ADME, cell-based; conditions: Caco-2
[6] = Intrinsic clearance in human liver microsomes at 2 uM after 10 to 30 mins by LC-MS/MS analysis; type: ADME; conditions: read-out: CLH
[7] = Intrinsic clearance in human liver microsomes after 0.5 to 30 mins by LC-MS/MS analysis; type: ADME; conditions: read-out: CLH
[8] = tested on: Human immunodeficiency virus 1; assay: Antiviral activity against HIV1 RF infected in human MT2 cells after 4 to 7 days by ELISA; type: functional, organism-based; conditions: Human immunodeficiency virus 1, RF

Row | SMILES | Ki (Protease) | microsomal CLint [3] | Papp A→B at 1 h, 10 µM [4] | EC50 [1] | CC50 at 120 h [2] | Papp A→B at 10 µM [5] | microsomal CLint at 2 µM [6] | microsomal CLint [7] | EC50 [8]
1 | COC(=O)N[C@H](C(=O)N[C@@H](Cc1ccccc1)[C@@H](O)CN(Cc1ccc(-c2ccccn2)cc1)NC(=O)[C@@H](NC(=O)OC)C(C)(C)C)C(C)(C)C [ATAZANAVIR] | – | – | – | – | – | 5.3 ×10⁻⁶ cm/s | 90 µL/min/mg | 140 µL/min/mg | 3.9 nM
2 | CNC(=O)[C@H](C)NC(=O)[C@@](O)(CCCN(Cc1ccc(Br)cc1)NC(=O)[C@@H](NC(=O)OC)C(C)(C)C)Cc1ccccc1 | 18 nM | – | – | 2600 nM | > 10000 nM | – | – | – | –
3 | CNC(=O)[C@@H](NC(=O)[C@@](O)(CCCN(Cc1ccc(Br)cc1)NC(=O)[C@@H](NC(=O)OC)C(C)(C)C)Cc1ccccc1)C(C)(C)C | 6.2 nM | 180 µL/min/mg | 4.6 ×10⁻⁶ cm/s | 2000 nM | > 10000 nM | – | – | – | –
4 | CNC(=O)[C@@H](NC(=O)[C@@](O)(CCCN(Cc1ccc(-c2ccc3c(c2)OCO3)cc1)NC(=O)[C@@H](NC(=O)OC)C(C)(C)C)Cc1ccccc1)C(C)(C)C | 4.8 nM | – | – | 1200 nM | > 50000 nM | – | – | – | –
5 | CNC(=O)[C@H](CC(C)C)NC(=O)[C@@](O)(CCCN(Cc1ccc(Br)cc1)NC(=O)[C@@H](NC(=O)OC)C(C)(C)C)Cc1ccccc1 | 65 nM | – | – | > 10000 nM | > 10000 nM | – | – | – | –
6 | COC(=O)N[C@H](C(=O)NN(CCC[C@@](O)(Cc1ccccc1)C(=O)N[C@H]1c2ccccc2C[C@H]1O)Cc1ccc(-c2ccncc2)cc1)C(C)(C)C | – | – | – | 170 nM | – | – | – | – | –
7 | COC(=O)N[C@H](C(=O)NN(CCC[C@@](O)(Cc1ccccc1)C(=O)N[C@H](CO)C(C)(C)C)Cc1ccc(Br)cc1)C(C)(C)C | 130 nM | – | – | > 10000 nM | > 10000 nM | – | – | – | –
8 | CNC(=O)[C@@H](NC(=O)[C@@](CCCN(Cc1ccc(Br)cc1)NC(=O)[C@@H](NC(=O)OC)C(C)(C)C)(Cc1ccccc1)O[Si](C)(C)C(C)(C)C)C(C)(C)C | 2700 nM | – | – | > 10000 nM | > 10000 nM | – | – | – | –
9 | CNC(=O)[C@@H](NC(=O)[C@@](O)(CCCN(Cc1ccc(Br)cc1)NC(=O)[C@@H](NC(=O)OC)C(C)(C)C)Cc1ccccc1)C(C)C | 2.7 nM | – | – | – | > 10000 nM | – | – | – | –
10 | CNC(=O)[C@H](Cc1ccccc1)NC(=O)[C@@](O)(CCCN(Cc1ccc(Br)cc1)NC(=O)[C@@H](NC(=O)OC)C(C)(C)C)Cc1ccccc1 | 170 nM | – | – | 8200 nM | > 10000 nM | – | – | – | –
11 | CNC(=O)[C@@H](NC(=O)[C@@](O)(CCCN(Cc1ccc(-c2ccsc2)cc1)NC(=O)[C@@H](NC(=O)OC)C(C)(C)C)Cc1ccccc1)C(C)(C)C | 3.6 nM | – | – | 1000 nM | > 50000 nM | – | – | – | –

Second part, led by results:

Row | Ki (Protease) | microsomal CLint [3] | Papp A→B at 1 h, 10 µM [4] | SMILES | EC50 [1] | CC50 at 120 h [2] | Papp A→B at 10 µM [5] | microsomal CLint at 2 µM [6] | microsomal CLint [7] | EC50 [8]
12 | 6.6 nM | – | – | CNC(=O)[C@@H](NC(=O)[C@@](O)(CCCN(Cc1ccc(C#Cc2ccncc2)cc1)NC(=O)[C@@H](NC(=O)OC)C(C)(C)C)Cc1ccccc1)C(C)(C)C | 8900 nM | > 50000 nM | – | – | – | –
13 | 3.5 nM | 20 µL/min/mg | 1.9 ×10⁻⁶ cm/s | CNC(=O)[C@@H](NC(=O)[C@@](O)(CCCN(Cc1ccc(-c2ccncc2)cc1)NC(=O)[C@@H](NC(=O)OC)C(C)(C)C)Cc1ccccc1)C(C)(C)C | 1100 nM | > 50000 nM | – | – | – | –
14 | 6.3 nM | – | – | CNC(=O)[C@@H](NC(=O)[C@@](O)(CCCN(Cc1ccc(-c2ccccn2)cc1)NC(=O)[C@@H](NC(=O)OC)C(C)(C)C)Cc1ccccc1)C(C)(C)C | 4900 nM | > 50000 nM | – | – | – | –
15 | 3.1 nM | 63 µL/min/mg | < 1 ×10⁻⁶ cm/s | CNC(=O)[C@@H](NC(=O)[C@@](O)(CCCN(Cc1ccc(-c2cccnc2)cc1)NC(=O)[C@@H](NC(=O)OC)C(C)(C)C)Cc1ccccc1)C(C)(C)C | 1000 nM | > 50000 nM | – | – | – | –
16 | 7 nM | – | – | CNC(=O)[C@@H](NC(=O)[C@@](O)(CCCN(Cc1ccc(C#Cc2ccccn2)cc1)NC(=O)[C@@H](NC(=O)OC)C(C)(C)C)Cc1ccccc1)C(C)(C)C | 1200 nM | > 50000 nM | – | – | – | –
17 | 3.4 nM | > 300 µL/min/mg | 6.1 ×10⁻⁶ cm/s | CNC(=O)[C@@H](NC(=O)[C@@](O)(CCCN(Cc1ccc(C#Cc2cccnc2)cc1)NC(=O)[C@@H](NC(=O)OC)C(C)(C)C)Cc1ccccc1)C(C)(C)C | 2100 nM | > 50000 nM | – | – | – | –
18 | > 5000 nM | – | – | CNC(=O)[C@@H](NC(=O)[C@](O)(CCCN(Cc1ccc(Br)cc1)NC(=O)[C@@H](NC(=O)OC)C(C)(C)C)Cc1ccccc1)C(C)(C)C | > 10000 nM | > 10000 nM | – | – | – | –
19 | 4.6 nM | > 300 µL/min/mg | 21 ×10⁻⁶ cm/s | CNC(=O)[C@@H](NC(=O)[C@@](O)(CCCN(Cc1ccc(-c2ccccc2)cc1)NC(=O)[C@@H](NC(=O)OC)C(C)(C)C)Cc1ccccc1)C(C)(C)C | 1000 nM | > 50000 nM | – | – | – | –
20 | 3.5 nM | – | – | CNC(=O)[C@@H](NC(=O)[C@@](O)(CCCN(Cc1ccc(-c2nccs2)cc1)NC(=O)[C@@H](NC(=O)OC)C(C)(C)C)Cc1ccccc1)C(C)(C)C | 3700 nM | > 50000 nM | – | – | – | –
